Measurements from paper PMC4561207 (Child's nervous system : ChNS : official journal of the …, 2015).

Test: Toxicities attributed to Cediranib
Type: in vivo, human

COc1cc2c(Oc3ccc4[nH]c(C)cc4c3F)ncnc2cc1OCCCN1CCCC1 [cediranib, Cediranib]
13(11): White blood cell decreased, events (patients) (grade 1 TOX)
5(4): Epistaxis, events (patients) (grade 1 TOX) | Headache, events (patients) (grade 1 TOX) | Hypernatremia, events (patients) (grade 1 TOX)
13(12): Proteinuria, events (patients) (grade 2 TOX)
16(8): Hypocalcemia, events (patients) (grade 1 TOX)
2(2): Alkaline phosphatase increased, events (patients) (grade 1 TOX) | Anemia, events (patients) (grade 1 TOX) | Hyperkalemia, events (patients) (grade 1 TOX) | Hyperthyroidism, events (patients) (grade 1 TOX) | Hypoglycemia, events (patients) (grade 1 TOX) | Investigations - Other, specify, events (patients) (grade 1 TOX) | Oral pain, events (patients) (grade 1 TOX) | Rash acneiform, events (patients) (grade 1 TOX) | Stomach pain, events (patients) (grade 1 TOX) | Vascular disorders - Other, specify, events (patients) (grade 1 TOX) | Voice alteration, events (patients) (grade 1 TOX) | Hyperglycemia, events (patients) (grade 2 TOX) | Mucositis oral, events (patients) (grade 2 TOX) | Dehydration, events (patients) (grade 3 TOX) | Diarrhea, events (patients) (grade 3 TOX)
10(7): Palmar-plantar erythrodysesthesia syndrome, events (patients) (grade 2 TOX)
9(5): Hyponatremia, events (patients) (grade 1 TOX)
37(19): Aspartate aminotransferase increased, events (patients) (grade 1 TOX)
Thirty-two: diarrhea, number of patients (all grades)
5(5): Abdominal pain, events (patients) (grade 1 TOX) | Rash maculo-papular, events (patients) (grade 1 TOX) | Abdominal pain, events (patients) (grade 2 TOX) | Anorexia, events (patients) (grade 2 TOX)
16(11): Diarrhea, events (patients) (grade 2 TOX)
28(28): Hypertension, events (patients) (grade 2 TOX)
43(30): Diarrhea, events (patients) (grade 1 TOX)
4(4): Palmar-plantar erythrodysesthesia syndrome, events (patients) (grade 1 TOX) | Aspartate aminotransferase increased, events (patients) (grade 2 TOX) | Intracranial hemorrhage, events (patients) (grade 2 TOX)
20(13): Hypoalbuminemia, events (patients) (grade 1 TOX) | Proteinuria, events (patients) (grade 1 TOX)
3(3): Dizziness, events (patients) (grade 1 TOX) | Dyspepsia, events (patients) (grade 1 TOX) | Pain in extremity, events (patients) (grade 1 TOX) | Headache, events (patients) (grade 2 TOX) | Nausea, events (patients) (grade 2 TOX) | Platelet count decreased, events (patients) (grade 2 TOX) | Vomiting, events (patients) (grade 2 TOX)
19(13): Hypertension, events (patients) (grade 1 TOX)
7(7): Fatigue, events (patients) (grade 1 TOX)
3(1): Flushing, events (patients) (grade 2 TOX)
10(8): Hypophosphatemia, events (patients) (grade 1 TOX)
14(11): Hypokalemia, events (patients) (grade 1 TOX)
1(1): Acidosis, events (patients) (grade 1 TOX) | Anal mucositis, events (patients) (grade 1 TOX) | Anal pain, events (patients) (grade 1 TOX) | Back pain, events (patients) (grade 1 TOX) | Bone pain, events (patients) (grade 1 TOX) | Cardiac troponin I increased, events (patients) (grade 1 TOX) | Cholesterol high, events (patients) (grade 1 TOX) | Chronic kidney disease, events (patients) (grade 1 TOX) | Cough, events (patients) (grade 1 TOX) | Creatinine increased, events (patients) (grade 1 TOX) | Dehydration, events (patients) (grade 1 TOX) | Depression, events (patients) (grade 1 TOX) | Dry mouth, events (patients) (grade 1 TOX) | Dry skin, events (patients) (grade 1 TOX) | Edema face, events (patients) (grade 1 TOX) | Edema limbs, events (patients) (grade 1 TOX) | Endocrine disorders - Other, specify, events (patients) (grade 1 TOX) | Fecal incontinence, events (patients) (grade 1 TOX) | Fever, events (patients) (grade 1 TOX) | GGT increased, events (patients) (grade 1 TOX) | Gastritis, events (patients) (grade 1 TOX) | Gastrointestinal disorders - Other, specify, events (patients) (grade 1 TOX) | Hoarseness, events (patients) (grade 1 TOX) | INR increased, events (patients) (grade 1 TOX) | Joint effusion, events (patients) (grade 1 TOX) | Leukoencephalopathy, events (patients) (grade 1 TOX) | Mucositis oral, events (patients) (grade 1 TOX) | Myalgia, events (patients) (grade 1 TOX) | Non-cardiac chest pain, events (patients) (grade 1 TOX) | Rectal pain, events (patients) (grade 1 TOX) | Renal and urinary disorders - Other, specify, events (patients) (grade 1 TOX) | Serum amylase increased, events (patients) (grade 1 TOX) | Skin and subcutaneous tissue disorders - Other, specify, events (patients) (grade 1 TOX) | Urinary frequency, events (patients) (grade 1 TOX) | Urinary retention, events (patients) (grade 1 TOX) | Weight loss, events (patients) (grade 1 TOX) | Arthralgia, events (patients) (grade 2 TOX) | Back pain, events (patients) (grade 2 TOX) | Bone pain, events (patients) (grade 2 TOX) | Constipation, events (patients) (grade 2 TOX) | Dehydration, events (patients) (grade 2 TOX) | Gastrointestinal disorders - Other, specify, events (patients) (grade 2 TOX) | Hypocalcemia, events (patients) (grade 2 TOX) | Hypoglycemia, events (patients) (grade 2 TOX) | Hypomagnesemia, events (patients) (grade 2 TOX) | Hypoxia, events (patients) (grade 2 TOX) | Lipase increased, events (patients) (grade 2 TOX) | Myalgia, events (patients) (grade 2 TOX) | Pain in extremity, events (patients) (grade 2 TOX) | Pain, events (patients) (grade 2 TOX) | Pericardial effusion, events (patients) (grade 2 TOX) | Peripheral motor neuropathy, events (patients) (grade 2 TOX) | Pleural effusion, events (patients) (grade 2 TOX) | Respiratory, thoracic and mediastinal disorders - Other, specify, events (patients) (grade 2 TOX) | Reversible posterior leukoencephalopathy syndrome, events (patients) (grade 2 TOX) | Seizure, events (patients) (grade 2 TOX) | Skin ulceration, events (patients) (grade 2 TOX) | Weight loss, events (patients) (grade 2 TOX) | Anemia, events (patients) (grade 3 TOX) | Aspartate aminotransferase increased, events (patients) (grade 3 TOX) | Blurred vision, events (patients) (grade 3 TOX) | Capillary leak syndrome, events (patients) (grade 3 TOX) | Chest wall pain, events (patients) (grade 3 TOX) | Confusion, events (patients) (grade 3 TOX) | Depressed level of consciousness, events (patients) (grade 3 TOX) | Dysphasia, events (patients) (grade 3 TOX) | Enterocolitis, events (patients) (grade 3 TOX)
22(17): Platelet count decreased, events (patients) (grade 1 TOX)
5(2): Constipation, events (patients) (grade 1 TOX)
11(8): Lymphocyte count decreased, events (patients) (grade 1 TOX) | Neutrophil count decreased, events (patients) (grade 1 TOX)
3(2): Hypercalcemia, events (patients) (grade 1 TOX)
5(3): Hematuria, events (patients) (grade 1 TOX)
9(9): Fatigue, events (patients) (grade 2 TOX)
7(6): Hyperglycemia, events (patients) (grade 1 TOX)
7(5): Hypermagnesemia, events (patients) (grade 1 TOX) | Lymphocyte count decreased, events (patients) (grade 2 TOX)
23(12): Vomiting, events (patients) (grade 1 TOX)
13(7): Blood bilirubin increased, events (patients) (grade 1 TOX)
4(2): Hypophosphatemia, events (patients) (grade 2 TOX) | White blood cell decreased, events (patients) (grade 2 TOX)
7(4): Neutrophil count decreased, events (patients) (grade 2 TOX)
6(2): Hemoglobin increased, events (patients) (grade 1 TOX)
8(8): Anorexia, events (patients) (grade 1 TOX)
41(22): Alanine aminotransferase increased, events (patients) (grade 1 TOX)
17(9): Alanine aminotransferase increased, events (patients) (grade 2 TOX)
6(5): Alanine aminotransferase increased, events (patients) (grade 3 TOX)
10(10): Hypothyroidism, events (patients) (grade 1 TOX) | Hypothyroidism, events (patients) (grade 2 TOX)
2(1): Malaise, events (patients) (grade 1 TOX) | Dizziness, events (patients) (grade 2 TOX)
15(10): Nausea, events (patients) (grade 1 TOX)
6(4): Hypomagnesemia, events (patients) (grade 1 TOX) | Hypoalbuminemia, events (patients) (grade 2 TOX)
